Calls of active or inactive are those of the source. No cut-off for these calls is given here.

Results on 21 compounds are retold here after ChEMBL document CHEMBL5241053, “Discovery of novel steroidal-chalcone hybrids with potent and selective activity against triple-negative breast cancer” (Bioorg Med Chem, 2020).

Assay [1] has as its system MDA-MB-231. Nature of the assay: Antiproliferative activity against human MDA-MB-231 cells assessed as cell growth inhibition incubated for 4 hrs by MTT assay. The settings on record: MDA-MB-231, 4 h. In kind it is functional, cell-based. Background: Tetrazolium dyes change colour on reduction, which living cells bring about.
Assay [2] is described as follows: Selectivity index, ratio of IC50 for antiproliferative activity against human A549 cells to IC50 for antiproliferative activity against human MDA-MB-231 cells. In kind it is functional.
The subject of another assay is A549. Nature of the assay: Antiproliferative activity against human A549 cells assessed as cell growth inhibition incubated for 4 hrs by MTT assay. In kind it is functional, cell-based. The settings on record: A549, 4 h.
The test system of another assay is HT-29. Nature of the assay: Antiproliferative activity against human HT-29 cells assessed as cell growth inhibition incubated for 4 hrs by MTT assay. The settings on record: HT-29, 4 h. In kind it is functional, cell-based.
Assay [3] is described as follows: Selectivity index, ratio of IC50 for antiproliferative activity against human HT-29 cells to IC50 for antiproliferative activity against human MDA-MB-231 cells. In kind it is functional.
Assay [4] has as its system MDA-MB-231. The assay is described as follows: Inhibition of colony formation in human MDA-MB-231 cells upto 5 uM for 9 days by crystal violet staining based assay. In kind it is functional, cell-based. The settings on record: time 9.0 day.

A word on the IC50: it is the concentration that gives 50% inhibition. As for `C[C@]12CC[C@H]3[C@@H](CCC4=CC(=O)C=C[C@@]43C)[C@@H]1CC[C@@H]2C(=O)NCCNC(=O)/C=C/c1cccc([N+](=O)[O-])c1`, the IC50 is 13.7 µM in the assay on MDA-MB-231 [1], 34.2 µM in the assay with A549 and > 40 µM in the assay with HT-29. The “Ratio IC50” value is recorded as 2.5 in assay [2] and >2.9 in assay [3].
As to `COc1ccc(/C=C/C(=O)NCCNC(=O)[C@H]2CC[C@H]3[C@@H]4CCC5=CC(=O)CC[C@]5(C)[C@H]4CC[C@]23C)cc1OC`, the IC50 in the assay with MDA-MB-231 [1] is 15.2 µM; with A549 it was 35.1 µM; with HT-29, 14.7 µM. For the same compound, the “Ratio IC50” value worked out at 2.3 in assay [2] and 1 in assay [3].
In the case of `C[C@]12CC[C@H]3[C@@H](CCC4=CC(=O)CC[C@@]43C)[C@@H]1CC[C@@H]2C(=O)NCCNC(=O)/C=C/c1cccc([N+](=O)[O-])c1`, the IC50 was 11.2 µM with MDA-MB-231 [1], 17.7 µM in the assay on A549 and 25.4 µM in the assay on HT-29. Besides, the “Ratio IC50” value in assay [2] stood at 1.6; in assay [3], 2.3.
In the case of `C[C@]12CC[C@H]3[C@@H](CCC4=CC(=O)CC[C@@]43C)[C@@H]1CC[C@@H]2C(=O)NCCNC(=O)/C=C/c1ccccc1`, the values for the IC50 in the assay on MDA-MB-231 [1], in the assay with A549 and with HT-29 were 10.3 µM, 27.3 µM and 9.49 µM, respectively. The “Ratio IC50” value in assay [2] was 2.7; in assay [3], 1.1.
Take `C[C@]12CC[C@H]3[C@@H](CCC4=CC(=O)C=C[C@@]43C)[C@@H]1CC[C@@H]2C(=O)NCCNC(=O)/C=C/c1ccc(C(F)(F)F)cc1`: the IC50 in the assay with MDA-MB-231 [1] is 12.5 µM; in the assay with A549 it was 38.1 µM; in the assay with HT-29, > 40 µM. Further, the entries for the “Ratio IC50” value in assay [2] and in assay [3] were 3.2 and >3.2, respectively.
`COc1cc(/C=C/C(=O)NCCNC(=O)[C@H]2CC[C@H]3[C@@H]4CCC5=CC(=O)CC[C@]5(C)[C@H]4CC[C@]23C)cc(OC)c1OC`: the IC50 in the assay with MDA-MB-231 [1], with A549 and in the assay with HT-29 was > 40 µM each time.
For `COc1ccc(/C=C/C(=O)NCCNC(=O)[C@H]2CC[C@H]3[C@@H]4CCC5=CC(=O)C=C[C@]5(C)[C@H]4CC[C@]23C)cc1OC`, the IC50 in the assay with MDA-MB-231 [1] was 5.75 µM; in the assay with A549, > 40 µM; in the assay with HT-29, > 40 µM. Besides, the “Ratio IC50” value in assay [2] and in assay [3] was >7 each time.
Turning to `C[C@]12CC[C@H]3[C@@H](CCC4=CC(=O)CC[C@@]43C)[C@@H]1CC[C@@H]2C(=O)NCCNC(=O)/C=C/c1ccc([N+](=O)[O-])cc1`, the 50% inhibitory concentration (IC50) in the assay with MDA-MB-231 [1] was 12 µM; with A549, > 40 µM; in the assay with HT-29 it was 27.8 µM. In addition, the “Ratio IC50” value is >3.3 in assay [2] and 2.3 in assay [3].
Consider `COc1ccc(/C=C/C(=O)NCCNC(=O)[C@H]2CC[C@H]3[C@@H]4CCC5=CC(=O)CC[C@]5(C)[C@H]4CC[C@]23C)cc1`, for which the figures for the IC50 with MDA-MB-231 [1], with A549 and in the assay with HT-29 were 22.2 µM, > 40 µM and 35 µM, respectively. In addition, the “Ratio IC50” value in assay [2] is reported as >1.8; in assay [3] it was 1.6.
The matching figures for `C[C@]12CC[C@H]3[C@@H](CCC4=CC(=O)C=C[C@@]43C)[C@@H]1CC[C@@H]2C(=O)NCCNC(=O)/C=C/c1ccc([N+](=O)[O-])cc1`: 22.6 µM, > 40 µM, > 40 µM, >1.8 and >1.8.
The matching figures for `C[C@]12CC[C@H]3[C@@H](CCC4=CC(=O)CC[C@@]43C)[C@@H]1CC[C@@H]2C(=O)NCCNC(=O)/C=C/c1ccc(Cl)cc1`: 8.19 µM, 35.7 µM, 15 µM, 4.3 and 1.8.
In the case of `C[C@]12CC[C@H]3[C@@H](CCC4=CC(=O)C=C[C@@]43C)[C@@H]1CC[C@@H]2C(=O)NCCNC(=O)/C=C/c1ccc(Cl)cc1`, the IC50 is > 40 µM with MDA-MB-231 [1], 38.7 µM with A549 and > 40 µM in the assay on HT-29.
Consider `C[C@]12CC[C@H]3[C@@H](CCC4=CC(=O)CC[C@@]43C)[C@@H]1CC[C@@H]2C(=O)NCCNC(=O)/C=C/c1ccc(C(F)(F)F)cc1`, for which the IC50 in the assay with MDA-MB-231 [1] is 9.21 µM; in the assay on A549, > 40 µM; in the assay on HT-29, 34.2 µM. Also, the “Ratio IC50” value is given as >4.3 in assay [2] and 3.7 in assay [3].
On to `CC(C)(C)OC(=O)NCCNC(=O)[C@H]1CC[C@H]2[C@@H]3CCC4=CC(=O)C=C[C@]4(C)[C@H]3CC[C@]12C`, for which the 50% inhibitory concentration (IC50) in the assay with MDA-MB-231 [1], in the assay on A549 and in the assay with HT-29 was > 40 µM throughout.
For the compound `O=c1[nH]cc(F)c(=O)[nH]1` [FLUOROURACIL], the IC50 came out at 9.89 µM in the assay on MDA-MB-231 [1], 14.5 µM with A549 and 12.7 µM in the assay with HT-29. Moreover, the “Ratio IC50” value in assay [2] came out at 1.5; in assay [3] it was 1.3.
For the compound `C[C@]12CC[C@H]3[C@@H](CCC4=CC(=O)C=C[C@@]43C)[C@@H]1CC[C@@H]2C(=O)NCCNC(=O)/C=C/c1ccccc1`, the IC50 with MDA-MB-231 [1] was 5.82 µM; in the assay on A549 it was 26.9 µM; in the assay on HT-29, 12.7 µM. In addition, the “Ratio IC50” value was determined as 4.6 in assay [2] and 2.2 in assay [3].
On to `O=C(/C=C/c1ccccc1)c1ccccc1` [CHALCONE], for which the results for the IC50 with MDA-MB-231 [1], in the assay on A549 and with HT-29 were 42.8 µM, 69.2 µM and 45.9 µM, respectively.
For `COc1cc(/C=C/C(=O)NCCNC(=O)[C@H]2CC[C@H]3[C@@H]4CCC5=CC(=O)C=C[C@]5(C)[C@H]4CC[C@]23C)cc(OC)c1OC`, the IC50 in the assay with MDA-MB-231 [1] is > 40 µM; in the assay with A549 it was 35.9 µM; in the assay on HT-29 it was > 40 µM.
For `CC(C)(C)OC(=O)NCCNC(=O)[C@H]1CC[C@H]2[C@@H]3CCC4=CC(=O)CC[C@]4(C)[C@H]3CC[C@]12C`, the 50% inhibitory concentration (IC50) in the assay on MDA-MB-231 [1] is 24.8 µM; in the assay on A549, > 40 µM; in the assay with HT-29 it was > 40 µM.
As to `COc1ccccc1/C=C/C(=O)NCCNC(=O)[C@H]1CC[C@H]2[C@@H]3CCC4=CC(=O)C=C[C@]4(C)[C@H]3CC[C@]12C`, the IC50 in the assay with MDA-MB-231 [1] came to 0.52 µM; in the assay with A549, 29.9 µM; in the assay on HT-29 it was 16.8 µM. Besides, the inhibition entry in the assay with MDA-MB-231 [4] is “Active”. Further, the “Ratio IC50” value in assay [2] amounted to 57.6; in assay [3], 32.3.
For `COc1ccc(/C=C/C(=O)NCCNC(=O)[C@H]2CC[C@H]3[C@@H]4CCC5=CC(=O)C=C[C@]5(C)[C@H]4CC[C@]23C)cc1`, the IC50 in the assay with MDA-MB-231 [1] was 11.5 µM; with A549, 29.6 µM; in the assay on HT-29, > 40 µM. The “Ratio IC50” value in assay [2] is listed as 2.6; in assay [3], >3.5.
